ChEMBL document CHEMBL5050832, “Compounds and methods for regulating, limiting, or inhibiting avil expression” (2020)
Calls of active or inactive are those of the source. The calls are words filed in the database; no cut-off is given here.

Key:
[1] = Antiproliferative activity against human astrocytes; type: functional, cell-based; conditions: Astrocyte
U-87 MG = test: Antiproliferative activity against human U87 cells; type: functional, cell-based, U-87MG ATCC
Homo sapiens = species: Homo sapiens; test: Binding affinity towards recombinant AVIL (unknown origin) measured by thermal shift assay
U-87MG ATCC = test: Downregulation of LIN28B expression in human U87 cells measured by qRT-PCR assay; type: functional, cell-based
Mesenchymal stem cells [2] = test: Antiproliferative activity against human mesenchymal stem cells; type: functional, cell-based
RD [3] = test: Antiproliferative activity against human RD cells; type: functional, cell-based
SJRH30 [4] = test: Antiproliferative activity against human Rh30 cells; type: functional, cell-based
Mesenchymal stem cells [5] = test: Antiproliferative activity against human mesenchymal stem cells at 20 uM assessed as decrease in cell number measured by crystal violet staining method relative to control; type: functional, cell-based
RD [6] = test: Antiproliferative activity against human RD cells at 20 uM assessed as decrease in cell number measured by crystal violet staining method relative to control; type: functional, cell-based
SJRH30 [7] = test: Antiproliferative activity against human Rh30 cells at 20 uM assessed as decrease in cell number measured by crystal violet staining method relative to control; type: functional, cell-based

Row | SMILES | IC50 [1] [µM] | IC50 (U-87 MG) [µM] | Activity (Homo sapiens) | Activity (U-87MG ATCC) | Activity (Mesenchymal stem cells [2]) | Activity (RD [3]) | Activity (SJRH30 [4]) | Activity (Mesenchymal stem cells [5]) | Activity (RD [6]) | Activity (SJRH30 [7])
1 | Cc1cc(N2CCCC(CO)(CCCc3ccccc3)C2)nc(N)n1 (centres undefined) | 5 | 8 |  |  |  |  |  |  |  | 
2 | CN(Cc1ccc(Oc2ccccc2)cc1)C(=O)[C@@H]1C[C@@H](O)CN1 |  |  | Active | Active |  |  |  |  |  | 
3 | c1ccc(CCC2CCN(CC3[C@H]4CNC[C@@H]34)CC2)cc1 (some centres undefined) |  |  | Active | Active |  |  |  |  |  | 
4 | Nc1nccc(N2CCCC(CO)(CCCc3ccccc3)C2)n1 (centres undefined) |  |  | Active | Active | inactive | Active | Active | inactive | Active | Active
